Test results published in patent US20240226106A1, “INHIBITORS OF PLASMA KALLIKREIN” (SHIRE HUMAN GENETIC THERAPIES, INC., priority 2021, published 2024).

biological target: human activated kallikrein enzyme (Homo sapiens, UniProt P03952); assay: Inhibition of human activated plasma kallikrein, fluorogenic peptide substrate (PFR-AMC), 500 pM enzyme format; assay type: biochemical; settings: 500 pM activated kallikrein, 30 min preincubation, 10 min reaction, room temperature, read-out: Primary Dose Response Assay: Average EC50
Procedure: Compounds were evaluated for inhibition of the human activated kallikrein enzyme in two formats of an assay employing a fluorogenic peptide substrate. In one assay format, the concentrations of reagents were as follows: 20 mM Tris pH 7.5, 1 mM EDTA, 150 mM sodium chloride, 0.1% PEG-400, 0.1% Triton X-100, 500 pM activated kallikrein enzyme, […] Pro-Phe-Arg-7-amido-4-methylcoumarin (PFR-AMC) substrate. Prior to reaction initiation with substrate, enzyme and inhibitors were preincubated for 30 min at room temperature. After initiation with substrate, reactions were incubated for 10 min at room temperature and fluorescence emission at 460 nm from 380 nm excitation measured with a microplate reader. In another assay format, the concentrations of reagents were as follows: 20 mM Tris pH 7.5, 1 mM EDTA, 150 mM sodium chloride, 0.1% PEG-400, 0.1% Triton X-100, 5 pM activated kallikrein enzyme, 300 uM PFR-AMC substrate. Prior to reaction initiation with substrate, enzyme and inhibitors were preincubated for 30 min at room temperature. After initiation with substrate, reactions were incubated for 18 hr at room temperature and fluorescence emission at 460 nm from 380 nm excitation measured with a microplate reader.

human activated kallikrein enzyme, sequence (P03952 391-638 limits assumed): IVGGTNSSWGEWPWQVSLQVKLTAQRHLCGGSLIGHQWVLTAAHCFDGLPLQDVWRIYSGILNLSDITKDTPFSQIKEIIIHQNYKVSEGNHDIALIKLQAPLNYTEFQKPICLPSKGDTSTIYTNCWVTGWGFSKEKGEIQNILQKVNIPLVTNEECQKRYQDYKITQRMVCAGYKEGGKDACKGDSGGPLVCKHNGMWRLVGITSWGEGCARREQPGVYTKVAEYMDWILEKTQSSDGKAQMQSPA
human activated kallikrein enzyme, sequence (P03952 20-390 partner limits assumed): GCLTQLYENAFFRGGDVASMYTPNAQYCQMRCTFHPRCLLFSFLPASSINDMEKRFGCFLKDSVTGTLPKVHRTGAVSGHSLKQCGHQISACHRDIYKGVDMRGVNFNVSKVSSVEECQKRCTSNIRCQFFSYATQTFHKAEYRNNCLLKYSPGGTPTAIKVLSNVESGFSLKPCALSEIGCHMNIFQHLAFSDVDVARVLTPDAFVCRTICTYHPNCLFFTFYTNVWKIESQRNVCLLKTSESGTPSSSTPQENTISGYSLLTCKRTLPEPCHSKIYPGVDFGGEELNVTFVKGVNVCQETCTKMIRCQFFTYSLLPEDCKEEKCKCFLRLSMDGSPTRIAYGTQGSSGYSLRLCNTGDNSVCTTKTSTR

Row | EC50 [nM] | Structure (SMILES)
1 | > 500 | O=C(Nc1cc(OCc2ccc(Cn3cccn3)cc2)cnn1)[C@H]1C[C@@H]1c1cncc(Cl)c1 (racemic) [Example 1, rac-(1S*,2S*)—N-(5-((4-((1H-pyrazol-1-yl)methyl)benzyl)oxy)pyridazin-3-yl)-2-(5-chloropyridin-3-yl)cyclopropane-1-carboxamide]
2 | > 500 | O=C(Nc1cc(OCc2csc(-c3ccccc3)n2)cnn1)[C@H]1C[C@@H]1c1cccc(Cl)c1 (racemic) [Example 2, rac-(1S*,2S*)-2-(3-chlorophenyl)-N-(5-((2-phenylthiazol-4-yl)methoxy)pyridazin-3-yl)cyclopropane-1-carboxamide]
3 | > 500 | O=C(Nc1cc(OCc2ccc(Cn3ccc(C4CC4)n3)cc2)cnn1)[C@H]1C[C@@H]1c1cccc(Cl)c1 (racemic) [Example 4, rac-(1S*,2S*)-2-(3-chlorophenyl)-N-(5-((4-((3-cyclopropyl-1H-pyrazol-1-yl)methyl)benzyl)oxy)pyridazin-3-yl)cyclopropane-1-carboxamide]
4 | > 500 | O=C(Nc1cc(OCc2ccc(Cn3cccn3)cc2)cnn1)[C@H]1C[C@@H]1c1cccnc1Cl (racemic) [Example 5, rac-(1S*,2S*)—N-(5-((4-((1H-pyrazol-1-yl)methyl)benzyl)oxy)pyridazin-3-yl)-2-(2-chloropyridin-3-yl)cyclopropane-1-carboxamide]
5 | > 500 | O=C(Nc1cc(OCc2ccc(Cn3cccn3)cc2)cnn1)[C@H]1C[C@@H]1c1cn[nH]c1 (racemic) [Example 6, rac-(1S*,2S*)—N-(5-((4-((1H-pyrazol-1-yl)methyl)benzyl)oxy)pyridazin-3-yl)-2-(1H-pyrazol-4-yl)cyclopropane-1-carboxamide]
6 | 25 to 500 | Nc1ncccc1[C@H]1C[C@@H]1C(=O)Nc1cc(OCc2ccc(Cn3cccn3)cc2)cnn1 (racemic) [Example 8, rac-(1S*,2S*)—N-(5-((4-((1H-pyrazol-1-yl)methyl)benzyl)oxy)pyridazin-3-yl)-2-(2-aminopyridin-3-yl)cyclopropane-1-carboxamide]
7 | > 500 | O=C(Nc1cn(Cc2ccc(Cn3cccn3)cc2)cn1)[C@H]1C[C@@H]1c1cccc(Cl)c1 (racemic) [Example 9, rac-(1S*,2S*)—N-(1-(4-((1H-pyrazol-1-yl)methyl)benzyl)-1H-imidazol-4-yl)-2-(3-chlorophenyl)cyclopropane-1-carboxamide]
8 | > 500 | O=C(Nc1cnn(Cc2ccc(Cn3cccn3)cc2)c1)[C@H]1C[C@@H]1c1cccc(Cl)c1 (racemic) [Example 10, rac-(1S*,2S*)—N-(1-(4-((1H-pyrazol-1-yl)methyl)benzyl)-1H-pyrazol-4-yl)-2-(3-chlorophenyl)cyclopropane-1-carboxamide]
9 | > 500 | Cc1cnn(-c2cc(COc3cnnc(NC(=O)[C@H]4C[C@@H]4c4cccc(Cl)c4)c3)ccn2)c1 (racemic) [Example 11, rac-(1S*,2S*)-2-(3-chlorophenyl)-N-(5-((2-(4-methyl-1H-pyrazol-1-yl)pyridin-4-yl)methoxy)pyridazin-3-yl)cyclopropanecarboxamide]
10 | > 500 | O=C(Nc1cc(OCc2ccc(-n3ccnc3)cc2)cnn1)[C@H]1C[C@@H]1c1cccc(Cl)c1 (racemic) [Example 12, rac-(1S*,2S*)—N-(5-((4-(1H-imidazol-1-yl)benzyl)oxy)pyridazin-3-yl)-2-(3-chlorophenyl)cyclopropane-1-carboxamide]
11 | > 500 | O=C(Nc1cc(OCc2ccc(-c3ncc[nH]3)cc2)cnn1)[C@H]1C[C@@H]1c1cccc(Cl)c1 (racemic) [Example 13, rac-(1S*,2S*)—N-(5-((4-(1H-imidazol-2-yl)benzyl)oxy)pyridazin-3-yl)-2-(3-chlorophenyl)cyclopropane-1-carboxamide]
12 | < 2.5 | O=C(Nc1cc(NCc2ccc(Cn3ccccc3=O)cc2)cnn1)[C@H]1C[C@@H]1c1cccc(Cl)c1 (racemic) [Example 14, rac-(1S*,2S*)-2-(3-chlorophenyl)-N-(5-((4-((2-oxopyridin-1 (2H)-yl)methyl)benzyl)amino)pyridazin-3-yl)cyclopropane-1-carboxamide]
13 | 2.5 to 25 | O=C(Nc1cc(NCc2ccc(Cn3cc(Cl)ccc3=O)cc2)cnn1)[C@H]1C[C@@H]1c1cccc(Cl)c1 (racemic) [Example 17, rac-(1S*,2S*)—N-(5-((4-((5-chloro-2-oxopyridin-1 (2H)-yl)methyl)benzyl)amino)pyridazin-3-yl)-2-(3-chlorophenyl)cyclopropane-1-carboxamide]
14 | 2.5 to 25 | O=C(Nc1cc(OCc2ccc(Cn3cccn3)cc2)cnn1)[C@H]1C[C@@H]1c1cccc(Cl)c1 (racemic) [Example 18, rac-(1S*,2S*)—N-(5-((4-((1H-pyrazol-1-yl)methyl)benzyl)oxy)pyridazin-3-yl)-2-(3-chlorophenyl)cyclopropane-1-carboxamide]
15 | > 500 | O=C(Nc1cc(NCc2ccc(Cn3ccccc3=O)cc2)cnn1)[C@H]1C[C@H]1c1cccc(Cl)c1 (racemic) [Example 19, rac-(1R*,2S*)-2-(3-chlorophenyl)-N-(5-((4-((2-oxopyridin-1 (2H)-yl)methyl)benzyl)amino)pyridazin-3-yl)cyclopropane-1-carboxamide]
16 | > 500 | O=C(Nc1cc(C2(c3ccc(Cn4cc(Cl)ccc4=O)cc3)CC2)cnn1)[C@H]1C[C@@H]1c1cccc(Cl)c1 (racemic) [Example 20, rac-(1S*,2S*)—N-(5-(1-(4-((5-chloro-2-oxopyridin-1 (2H)-yl)methyl)phenyl)cyclopropyl)pyridazin-3-yl)-2-(3-chlorophenyl)cyclopropane-1-carboxamide]
17 | > 500 | O=C(Nc1cc(Cc2ccc3ncc(C4CC4)cc3c2)ncn1)[C@H]1C[C@@H]1c1cccc(Cl)c1 (racemic) [Example 21, rac-(1S*,2S*)-2-(3-chlorophenyl)-N-(6-((3-cyclopropylquinolin-6-yl)methyl)pyrimidin-4-yl)cyclopropane-1-carboxamide]
18 | 2.5 to 25 | N#Cc1ccc(Cl)cc1[C@H]1C[C@@H]1C(=O)Nc1cc(NCc2nc3ccc(C4CC4)cn3n2)ncn1 (racemic) [Example 24, rac-(1S*,2S*)-2-(5-chloro-2-cyanophenyl)-N-(6-(((6-cyclopropyl-[1,2,4]triazolo[1,5-a]pyridin-2-yl)methyl)amino)pyrimidin-4-yl)cyclopropane-1-carboxamide]
19 | 2.5 to 25 | N#Cc1ccc(Cl)cc1[C@H]1C[C@@H]1C(=O)Nc1cc(NCc2nc3ccc(C4CC4)nn3n2)ncn1 (racemic) [Example 27, rac-(1S*,2S*)-2-(5-chloro-2-cyanophenyl)-N-(6-(((6-cyclopropyl-[1,2,4]triazolo[1,5-b]pyridazin-2-yl)methyl)amino)pyrimidin-4-yl)cyclopropane-1-carboxamide]
20 | < 2.5 | N#Cc1ccc(Cl)cc1[C@H]1C[C@@H]1C(=O)Nc1cc(NCc2nc3ccc(C4CC4)cn3n2)ccn1 (racemic) [Example 30, rac-(1S*,2S*)-2-(5-chloro-2-cyanophenyl)-N-(4-(((6-cyclopropyl-[1,2,4]triazolo[1,5-a]pyridin-2-yl)methyl)amino)pyridin-2-yl)cyclopropane-1-carboxamide]
21 | > 500 | Cc1ccnc([C@H]2C[C@@H]2C(=O)Nc2cc(N3C[C@@H](O)C[C@H]3c3ccc(N4CC5CC5C4)nc3)ncn2)n1 (mixture of isomers) [Example 70, rac-(1S*,2S*)—N-(6-((2S*,4S)-2-(6-(3-azabicyclo[3.1.0]hexan-3-yl)pyridin-3yl)-4-hydroxypyrrolidin-1-yl)pyrimidin-4-yl)-2-(4-methylpyrimidin-2-yl)cyclopropane-1-carboxamide]
22 | 2.5 to 25 | Cc1ccnc([C@H]2C[C@@H]2C(=O)Nc2cc(NCc3nc4ncc(C5CC5)cn4n3)ncn2)n1 (racemic) [Example 78, rac-(1S*,2S*)—N-(6-(((6-cyclopropyl-[1,2,4]triazolo[1,5-a]pyrimidin-2-yl)methyl)amino)pyrimidin-4-yl)-2-(4-methylpyrimidin-2-yl)cyclopropane-1-carboxamide]
23 | 2.5 to 25 | CC(Oc1cnnc(NC(=O)[C@H]2C[C@@H]2c2cccc(Cl)c2)c1)c1ccc(Cn2cccn2)cc1 (relative stereo) [Example 3, rac-(1S*,2S*)-N-(5-(1-(4-((1H-pyrazol-1-yl)methyl)phenyl)ethoxy)pyridazin-3-yl)-2-(3-chlorophenyl)cyclopropane-1-carboxamide]
24 | 2.5 to 25 | Cc1ccnc([C@H]2C[C@@H]2C(=O)Nc2cc(N3C[C@@H](O)CC3c3ccc(N4CC5CC5C4)nc3)ncn2)n1 (relative stereo) [Example 69, rac-(1S*,2S*)—N-(6-((4S)-2-(6-(3-azabicyclo[3.1.0]hexan-3-yl)pyrin-3-yl)-4-hydroxypyrrolidin-1-yl)pyrimidin-4-yl)-2-(4-methylpyrimidin-2-yl)cyclopropane-1-carboxamide]
25 | 25 to 500 | Cc1ccnc([C@H]2C[C@@H]2C(=O)Nc2cc(N3C[C@@H](O)C[C@@H]3c3cn4cc(C5CC5)cnc4n3)ncn2)c1F (relative stereo) [Example 76, rac-(1S*,2S*)—N-(6-((2R,4S)-2-(6-cyclopropylimidazo[1,2-a]pyrimidin-2-yl)-4-hydroxypyrrolidin-1-yl)pyrimidin-4-yl)-2-(3-fluoro-4-methylpyridin-2-yl)cyclopropane-1-carboxamide]
